{
  "source": "ChEMBL document CHEMBL5241051",
  "about": "“Phthalimide analogs for antimalarial drug discovery” (RSC Med Chem, 2021)",
  "key": {"[1]": {"assay": "Selectivity index, ratio of CC50 for cytotoxicity against human HepG2 cells to IC50 for […] activity against Plasmodium falciparum 3D7", "type": "toxicity, cell-based", "details": "read-out: Ratio CC50/IC50"}, "[2]": {"assay": "Cytotoxicity against human HepG2 cells assessed as reduction in cell viability incubated for 24 hrs by MTT assay", "type": "toxicity, cell-based"}, "Plasmodium falciparum [3]": {"tested_on": "Plasmodium falciparum", "assay": "Antiplasmodial activity against Plasmodium falciparum 3D7 infected in erythrocytes (unknown origin) assessed as inhibition of parasite growth by SYBR green staining based fluorescence assay", "type": "functional, organism-based", "details": "3D7, Erythrocyte"}, "Plasmodium falciparum [4]": {"tested_on": "Plasmodium falciparum", "assay": "Inhibition of Plasmodium falciparum 3D7 cytochrome bc1 oxidoreductase using decylubiquinol as substrate at 70 uM relative to control"}, "Plasmodium falciparum [5]": {"tested_on": "Plasmodium falciparum", "assay": "Antiplasmodial activity against chloroquine sensitive Plasmodium falciparum 3D7 infected in erythrocytes (unknown origin) assessed as inhibition of parasite growth incubated for 90 hrs by SYBR green staining based fluorescence assay", "type": "functional, organism-based", "details": "3D7, Erythrocyte"}, "Plasmodium falciparum [6]": {"tested_on": "Plasmodium falciparum", "assay": "Antiplasmodial activity against chloroquine resistant Plasmodium falciparum W2 infected in erythrocytes (unknown origin) assessed as inhibition of parasite growth incubated for 90 hrs by SYBR green staining based fluorescence assay", "type": "functional, organism-based", "details": "W2, Erythrocyte"}, "Plasmodium falciparum [7]": {"tested_on": "Plasmodium falciparum", "assay": "Antiplasmodial activity against chloroquine resistant Plasmodium falciparum 7GB assessed as inhibition of parasite growth incubated for 48 hrs by SYBR green I staining based fluorescence assay", "type": "functional, organism-based"}, "Plasmodium falciparum [8]": {"tested_on": "Plasmodium falciparum", "assay": "Antiplasmodial activity against Plasmodium falciparum 3D7 assessed as inhibition of parasite growth incubated for 48 hrs by SYBR green I staining based fluorescence assay", "type": "functional, organism-based", "details": "3D7, 48 h"}, "[9]": {"assay": "Inhibition of Plasmodium falciparum plasmepsin IV assessed as substrate cleavage preincubated with enzyme for 5 mins followed by substrate addition and measured immediately by spectrophotometric analysis"}, "[10]": {"assay": "Inhibition of Plasmodium falciparum plasmepsin II assessed as substrate cleavage preincubated with enzyme for 5 mins followed by substrate addition and measured immediately by spectrophotometric analysis"}, "Plasmodium berghei [11]": {"tested_on": "Plasmodium berghei", "assay": "Antimalarial activity against GFP-expressing liver stage Plasmodium berghei ANKA sporozoites infected in human HepG2 cells assessed as inhibition of parasite growth incubated for 2 days by imaging analysis", "type": "functional, organism-based", "details": "HepG2, 48 h"}, "[12]": {"assay": "Inhibition of Plasmodium falciparum plasmepsin V"}, "[13]": {"assay": "Cytotoxicity against human PBMC cells assessed as inhibition of cell growth incubated for 24 hrs by Celltiter-Glo assay", "type": "toxicity, cell-based"}, "[14]": {"assay": "Inhibition of Plasmodium falciparum plasmepsin X"}, "Plasmodium falciparum [15]": {"tested_on": "Plasmodium falciparum", "assay": "Antiplasmodial activity against multidrug resistant Plasmodium falciparum Dd2 infected in erythrocytes (unknown origin) incubated for 72 hrs by SYBR green I staining based fluorescence assay", "type": "functional, organism-based", "details": "Dd2, Erythrocyte"}, "Plasmodium berghei [16]": {"tested_on": "Plasmodium berghei", "assay": "Antimalarial activity against chloroquine resistant Plasmodium berghei NK-65 infected RBC infected in Swiss albino mouse assessed as survival rate at 100 mg/kg, sc pre-infected for 48 hrs followed by compound addition for 4 days in the presence of artemisinin", "type": "functional", "details": "time 4 day"}, "Plasmodium falciparum [17]": {"tested_on": "Plasmodium falciparum", "assay": "Antiplasmodial activity against chloroquine sensitive Plasmodium falciparum 3D7 assessed as reduction in [3H]-hypoxanthine incorporation by liquid scintillation beta counter analysis", "type": "functional, organism-based"}, "Plasmodium berghei [18]": {"tested_on": "Plasmodium berghei", "assay": "Antimalarial activity against GFP-expressing Plasmodium berghei ANKA infected in mouse assessed as survival rate at 50 mg/kg, sc pre-infected for 2 hrs followed by compound addition", "type": "functional"}, "Plasmodium falciparum [19]": {"tested_on": "Plasmodium falciparum", "assay": "Antiplasmodial activity against chloroquine sensitive Plasmodium falciparum D6 infected in erythrocytes (unknown origin) incubated for 72 hrs by SYBR green I staining based fluorescence assay", "type": "functional, organism-based", "details": "D6, Erythrocyte"}, "Plasmodium falciparum [20]": {"tested_on": "Plasmodium falciparum", "assay": "Antiplasmodial activity against Plasmodium falciparum RKL-9 stage I-V gametocytes assessed as reduction in parasitemia incubated for 72 hrs by giemsa staining based analysis", "details": "RKL-9, 72 h"}, "[21]": {"assay": "Cytotoxicity against human U-937 cells assessed as inhibition of cell growth incubated for 24 hrs by Celltiter-Glo assay", "type": "toxicity, cell-based"}},
  "data": [
    {"smiles": "COc1ccc(N2C(=O)c3cccc(N)c3C2=O)cc1", "values": [
      {"measurement": "selectivity ratio", "setting": "[1]", "value": "> 36"},
      {"measurement": "CC50 at 24 h", "setting": "[2]", "value": "> 250000", "unit": "nM"},
      {"measurement": "IC50", "setting": "Plasmodium falciparum [3]", "value": 4200, "unit": "nM"},
      {"measurement": "inhibition", "setting": "Plasmodium falciparum [4]", "value": 74, "unit": "%"}
    ]},
    {"smiles": "CC(C)CC(c1nc2ccccc2n1Cc1cnn[nH]1)N1C(=O)c2ccccc2C1=O", "note": "(stereo not drawn)", "values": [
      {"measurement": "IC50", "setting": "Plasmodium falciparum [5]", "value": 700, "unit": "nM"},
      {"measurement": "IC50", "setting": "Plasmodium falciparum [6]", "value": 900, "unit": "nM"}
    ]},
    {"smiles": "O=C(N[C@H](Cc1ccccc1)[C@@H](O)CN1CCN(Cc2ccc(F)cc2)CC1)[C@@H](Cc1ccccc1)N1C(=O)c2ccccc2C1=O", "values": [
      {"measurement": "IC50", "setting": "Plasmodium falciparum [7]", "value": 2990, "unit": "nM"},
      {"measurement": "IC50", "setting": "Plasmodium falciparum [8]", "value": 1330, "unit": "nM"}
    ]},
    {"smiles": "CC(C)[C@H](C(=O)N[C@H](Cc1ccccc1)[C@@H](O)CN1CCN(C[C@H](O)[C@@H](Cc2ccccc2)NC(=O)[C@@H](C(C)C)N2C(=O)c3ccccc3C2=O)CC1)N1C(=O)c2ccccc2C1=O", "values": [
      {"measurement": "Ki", "setting": "[9]", "value": 3300, "unit": "nM"}
    ]},
    {"smiles": "O=C(N[C@H](Cc1ccccc1)[C@@H](O)CN1CCN(C[C@H](O)[C@@H](Cc2ccccc2)NC(=O)[C@@H](Cc2ccccc2)N2C(=O)c3ccccc3C2=O)CC1)[C@@H](Cc1ccccc1)N1C(=O)c2ccccc2C1=O", "values": [
      {"measurement": "IC50", "setting": "Plasmodium falciparum [7]", "value": 2990, "unit": "nM"},
      {"measurement": "IC50", "setting": "Plasmodium falciparum [8]", "value": 1300, "unit": "nM"}
    ]},
    {"smiles": "CC[C@H](C)[C@@H](C(=O)N[C@H](Cc1ccccc1)[C@@H](O)CN1CCN(C[C@H](O)[C@@H](Cc2ccccc2)NC(=O)[C@H]([C@@H](C)CC)N2C(=O)c3ccccc3C2=O)CC1)N1C(=O)c2ccccc2C1=O", "values": [
      {"measurement": "Ki", "setting": "[10]", "value": 990, "unit": "nM"}
    ]},
    {"smiles": "CC(C)(C)OC(=O)N[C@H](Cc1ccccc1)[C@@H](O)CN1CCC(N2CCCCC2)CC1", "values": [
      {"measurement": "IC50", "setting": "Plasmodium falciparum [7]", "value": 2990, "unit": "nM"},
      {"measurement": "IC50", "setting": "Plasmodium falciparum [8]", "value": 1160, "unit": "nM"}
    ]},
    {"smiles": "CC(C)CC(c1nc2ccccc2n1Cc1cnnn1-c1ccccc1)N1C(=O)c2ccccc2C1=O", "note": "(stereo not drawn)", "values": [
      {"measurement": "IC50", "setting": "Plasmodium falciparum [5]", "value": 900, "unit": "nM"},
      {"measurement": "IC50", "setting": "Plasmodium falciparum [6]", "value": 700, "unit": "nM"}
    ]},
    {"smiles": "COc1ccc(N2C(=O)c3cccc(NCc4ccccc4)c3C2=O)cc1", "values": [
      {"measurement": "selectivity ratio", "setting": "[1]", "value": "> 59"},
      {"measurement": "CC50 at 24 h", "setting": "[2]", "value": "> 250000", "unit": "nM"},
      {"measurement": "IC50", "setting": "Plasmodium falciparum [3]", "value": 6800, "unit": "nM"}
    ]},
    {"smiles": "Cc1ccc2c(c1)C(=O)N(C(Cc1ccccc1)C(=O)NC(Cc1ccccc1)C(O)CN1CCN(CC(O)C(Cc3ccccc3)NC(=O)C(Cc3ccccc3)N3C(=O)c4ccc(C)cc4C3=O)CC1)C2=O", "note": "(stereo not drawn)", "values": [
      {"measurement": "IC50", "setting": "Plasmodium berghei [11]", "value": 2100, "unit": "nM"},
      {"measurement": "Ki", "setting": "[12]", "value": 530, "unit": "nM"},
      {"measurement": "CC50 at 24 h", "setting": "[13]", "value": 11100, "unit": "nM"},
      {"measurement": "Ki", "setting": "[14]", "value": 3830, "unit": "nM"},
      {"measurement": "Ki", "setting": "[9]", "value": 252, "unit": "nM"},
      {"measurement": "Ki", "setting": "[10]", "value": 112, "unit": "nM"},
      {"measurement": "IC50", "setting": "Plasmodium falciparum [15]", "value": 600, "unit": "nM"},
      {"measurement": "Survival", "setting": "Plasmodium berghei [16]", "value": 15, "unit": "days"},
      {"measurement": "IC50", "setting": "Plasmodium falciparum [17]", "value": 1310, "unit": "nM"},
      {"measurement": "Survival", "setting": "Plasmodium berghei [18]", "value": 20, "unit": "days"},
      {"measurement": "IC50", "setting": "Plasmodium falciparum [19]", "value": 910, "unit": "nM"},
      {"measurement": "IC50", "setting": "Plasmodium falciparum [20]", "value": 1680, "unit": "nM"},
      {"measurement": "CC50 at 24 h", "setting": "[21]", "value": 26400, "unit": "nM"}
    ]},
    {"smiles": "CC(C)[C@@H](C(=O)N[C@H](Cc1ccccc1)[C@@H](O)CN1CCN(Cc2ccc(Br)cc2)CC1)N1C(=O)c2ccccc2C1=O", "values": [
      {"measurement": "IC50", "setting": "Plasmodium falciparum [8]", "value": 1250, "unit": "nM"}
    ]}
  ]
}
